Among the data in a melting point compilation (Tetko et al.; mined from patent text by program, amines drawn as free bases though some values may be those of a salt) are melting point values, retold here.

In general, melting point refers to the temperature of the solid-liquid transition. `COc1cc2c(cc1OCc1ccccc1)CCN(C(=O)c1ccccc1OC)C2=O` showed a melting point of 163 to 164 °C. On to `Cc1ccc(CCc2cc3c(s2)NC(=S)CN=C3c2ccccc2Cl)cc1`, for which the melting point was in the range of 190 to 191 °C. Take `Oc1cccc2c1CC=CC2`: the melting point lay within 70.5 to 72 °C. The compound `FC(F)(F)c1cccc(Nc2nc(NCc3ccco3)nc(OCc3ccncc3)n2)c1` gave a melting point of 124 to 126 °C. As for `Cc1c(Cc2ccccc2)c(=O)n(Cc2ccccc2)c2cc(OCC(=O)NO)cc(OCC(=O)NO)c12`, the figure is 121 to 127 °C.

`Cc1ccc(-n2nc(C)c(NC(N)=S)c2C)cc1` came in with a melting point of 240 to 241 °C.

`Oc1ccc(CCc2cc(O)cc(O)c2)cc1` returned a melting point of 160 to 161 °C. As for `Cc1cc(Nc2ccc(Cl)cc2)nc(-n2nc(C)cc2C)n1`, the melting point is 181 to 183 °C. `CCCCN1CNC(=O)NC1=O` showed a melting point of 205 to 207 °C. Compound `CCC1(CC)OC(c2ccc(S(C)(=O)=O)cc2)=C(c2cccc(Cl)c2)C1=O` registered a melting point of 131 to 132 °C. `CC1(C)Oc2ccc(C#N)cc2[C@@H](NC(=O)c2cscc2-n2cccc2)[C@@H]1O` gave a melting point of 174 to 175 °C. With `C[C@H](C(=O)O)[C@H](O)c1ccccc1`, the melting point is 89 to 90 °C. Consider `Cc1c2n(c(=O)c3c(O)cccc13)CCCS2=O` (stereo not drawn), for which the melting point lay in the range of 169 to 170 °C. In turn, `Cn1nc(N)nc1NCCCCOc1cccc(CN2CCCCC2)c1` gave a melting point of 82 to 82.5 °C. For the compound `OC(CCl)(c1ccccc1)c1ccccc1`, the melting point lay in the range of 56 to 57 °C. The same measure for `CCCCc1cccc2c3c([nH]c12)C(CC)(CC(=O)O)CCC3` (stereo not drawn): 131 to 134 °C; for `O=Cc1cc(Cl)c(O)c(O)c1Cl`: 176 to 178 °C. For the compound `CC(C)c1cccc(C(C)C)c1N1C(=O)c2cccc3c(C(N)=O)ccc(c23)C1=O`, the melting point turned out to be 233 °C. For the compound `O=Cc1ccc(S(=O)(=O)CCCl)cc1Cl`, the melting point fell in the range of 117 to 119 °C. For the compound `O=C1CCC(c2ccc3c(c2)CC(NC(=O)Nc2ccccc2)C3)=NN1` (stereo not drawn), the melting point is 249 to 251 °C. On to `CNc1ncnc(NCc2c(F)cccc2Cl)c1N`, for which the melting point lay within 210 to 213 °C. In the case of `Cc1cccc(NC(=O)NCC(=O)N(c2ccccc2)C(C(=O)OC(C)(C)C)c2cccc(Br)c2)c1` (racemic), the melting point came to 103 °C. Regarding `CC1(C)CC(=O)Nc2ccc(-c3cccc(C#N)c3)cc21`, the melting point lay in the range of 190 to 192 °C. For `CNC1CCN(c2nc3c(cc2F)c(=O)c(C(=O)O)cn3C2CC2)C1` (stereo not drawn), the melting point is 233 to 235 °C.

Take `Cc1ccccc1OCCCc1sc(-n2ccnc2C)nc1-c1ccc(Cl)cc1`: the melting point is 112 to 113 °C. The same measure for `CC(=O)N(C)c1cccnc1S(N)(=O)=O`: 181 to 185 °C; for `CN(C)c1ccc(-c2cc(=O)c(C(=O)O)cn2-c2ccc(F)c(N)c2)cc1`: 198 to 201 °C; for `COc1ccc(N2CCN(c3ccc(N=C=S)cc3)CC2)cc1`: 181 °C. Compound `O=C(NCCN1CCC(O)(c2ccc(Cl)cc2)CC1)c1ccc(F)cc1[N+](=O)[O-]` gave a melting point of 144 °C.

Take `O=C1Nc2ccc(-c3cc(F)cc(Br)c3)cc2C(C2CC2)(C2CC2)O1`: the melting point was 228 to 229 °C.

For `CCOC(=O)c1c(O)ccc(Cc2c[nH]cn2)c1C`, the melting point fell in the range of 42 to 45 °C. As for `CCCc1nnc(/C=C/c2cc(OCc3ccc(OCc4nc(-c5ccco5)oc4C)c(OC)c3)nn2-c2ccccc2)o1`, the figure is 107 to 108 °C; as for `CCN(CC)CCN(c1cc(OC)c(C)cc1[N+](=O)[O-])S(=O)(=O)c1ccc(C)cc1`, 114 °C; as for `CCCC1=NN(c2ccc(C#N)cc2)C(=O)C1=CNc1ccccc1CC`, 197 °C.

`COC(=O)C1=C(C)NC(C)=C(C(=O)OCCN2C(=O)c3ccccc3C2=O)C1c1cccc(C)c1` (stereo not drawn) gave a melting point of 188 to 190 °C.

`COc1cccc(N(CC(=O)OC(C)(C)C)C(=O)CNC(=O)Nc2cccc(C)c2)c1`: the melting point is 60 °C. `CC12CCC(Oc3c(F)c(F)c(C(F)(F)F)c(F)c3F)=CC1=CCC1C2CCC2(C)C(OS(=O)(=O)C(F)(F)F)=CCC12` (stereo not drawn) yielded a melting point of 106 to 107 °C. Compound `CCSc1c(Cl)nc(Cl)nc1Cl` showed a melting point of 62 to 64 °C. Compound `O=C1c2ccccc2C(=O)c2c(NCCN3CCOCC3)ccc(NCCN3CCOCC3)c21` registered a melting point of 158 to 159 °C.

On to `CCCOc1ccc(S(=O)(=O)N2CCN(C(C)=O)CC2)cc1-c1nc2cc(Cl)c([N+](=O)[O-])cc2c(=O)[nH]1`, for which the melting point was in the range of 215 to 217 °C. The same measure for `CN1C(=O)C2CC(c3ccc(Cl)cc3)(C2)C1=O`: 155 to 156 °C; for `CC(=O)N(C)C12CCCCC1Oc1ccccc12` (stereo not drawn): 138 to 139 °C. The same measure for `CC1(C)Oc2ccsc2C(NC(=O)c2ccncc2)C1O` (stereo not drawn): 223 to 234 °C; for `Cc1nc(N2CCN(Cc3ccc(F)cc3)C2=O)sc1C(=O)NCc1cocn1`: 188 to 191 °C.

In the case of `Cc1cc(C)n(C(=O)CCNS(=O)(=O)c2ccccc2)n1`, the melting point fell in the range of 113 to 115 °C. As for `Nc1nc(-c2ccc(Cl)cc2)cc(C2CCN(C(=O)c3ccccc3)CC2)n1`, the figure is 129 to 130 °C; as for `Cc1cc(OCc2ccccc2)ccc1CC#N`, 51 to 52 °C; as for `CC(CCN1CCN(c2ccc(F)cc2)CC1)N1c2cccc3cccc(c23)S1(=O)=O` (stereo not drawn), 116 °C. For the compound `Cn1cnc(S(=O)(=O)NCCCCCCNS(=O)(=O)c2cn(C)cn2)c1`, the melting point is 153 to 154 °C. For the compound `O=C(Oc1ccc2ncccc2c1)c1ccccc1`, the melting point lay within 77 to 79 °C. The same measure for `CCCCNC(=O)[C@H](C)C[C@H](O)[C@H](CC1CCCCC1)NC(=O)[C@H](Cc1cscn1)NC(=O)[C@@H](CC(=O)N(C)Cc1ccccc1)Cc1ccc(OC)cc1`: 112 to 114 °C; for `CC(=O)NC[C@H]1CN(c2ccc(C(=O)c3cnc4ccc([N+](=O)[O-])cn34)cc2)C(=O)O1`: 223 to 225 °C. The same measure for `O=C(OCCCc1nc(-c2ccc(Cl)cc2)co1)c1ccccc1`: 47 to 47.5 °C; for `CN(c1cccc2cc(C3=NCC4(CCN(S(C)(=O)=O)CC4)S3)[nH]c12)S(=O)(=O)c1cccs1`: 251 °C; for `C1=C(c2c[nH]c3ccccc23)CCN(CC2COc3ccc4[nH]ccc4c3O2)C1` (stereo not drawn): 126 °C. As for `CCCn1nc(-c2ccc(O)c(Cl)c2)c2cccc(Cl)c21`, the figure is 145 to 146 °C; as for `CCCOc1ccc(C(=O)Cn2cncn2)cc1`, 97 to 99 °C.

Compound `Cn1cncc1-c1cnc(-c2ccccc2)nc1` had a melting point of 144 °C.

Consider `CCn1c(=O)[nH]c2cnc(-c3ccccc3)nc21`, for which the melting point lay within 268 to 270 °C. `Cc1nc(-c2cccnc2)sc1-c1ccnc(Nc2cccc(CN)c2)n1` had a melting point of 211 to 213 °C.

Compound `COc1cccc(CCN2C(=O)COc3ccc(C=C4SC(=S)NC4=O)cc32)c1` registered a melting point of 233 to 236 °C. Consider `c1ccc(-n2c(Cc3cccnc3)nc3ccccc32)cc1`, for which the melting point lay within 115 to 116 °C. In turn, `N#Cc1ccc2c(c1)CCC2=O` returned a melting point of 123 to 125 °C.
